The values below come from patent US6562818B1, “Irreversible inhibitors of tyrosine kinases” (Warner-Lambert Company, priority 1997, dated 2003).

Series [1] has as its target Human EGF receptor tyrosine kinase (Homo sapiens, UniProt P00533). The note with it: read-out: EGFR (isolated enzyme) IC50; isolated enzyme from A431 cells, 10 μM ATP.
Procedure: Human EGF receptor tyrosine kinase was isolated from A431 human epidermoid carcinoma cells by the following method. Cells were grown in roller bottles in dMEM/F12 media (Gibco/BRL) containing 10% fetal calf serum. Approximately 10^9 cells were lysed in 2 volumes of buffer containing 20 mM N-[2-hydroxyethyl]piperazine-N′-[2-ethane sulfonic acid](Hepes), pH 7.4, 5 mM ethylene glycol-bis(β-aminoethyl ether) N,N,N′,N′-tetraacetic acid (EGTA), 1% Triton X-100, 10% glycerol, 0.1 mM sodium orthovanadate, 5 mM sodium fluoride, 4 mM pyrophosphate, 4 mM benzamide, 1 mM dithiothreitol (DTT), 80 μg/mL aprotinin, 40 μg/mL leupeptin, and 1 mM phenylmethyl sulfonyl fluoride (PMSF). After centrifugation at 25,000×g for 10 minutes, the supernatant was applied to a fast Q sepharose column (Pharmacia Biotech., Inc., Piscataway, N.J.) and eluted with a linear gradient from 0.1 M NaCl to 0.4 M NaCl in 50 mM Hepes, 10% glycerol, pH 7.4. Enzyme active fractions were pooled, divided into aliquots, and stored at −100° C.
Enzyme assays for IC50 determinations were performed in 96-well filter plates (Millipore MADVN6550, Millipore, Bedford, Mass). […] The wells are then washed 5 times with 0.2 mL of 10% TCA and ^32P incorporation determined with a Wallac beta plate counter (Wallac, Inc., Gaithersburg, Pa.).
For series [2], the target named is T1, EGFR (Homo sapiens, UniProt P00533). The note with it: A431 cells, 2 μM compound. As to the method:
(§1) Extracts were made by lysing the monolayers in 0.2 mL of boiling Laemlli buffer (2% sodium dodecyl sulfate, 5% beta-mercaptoethanol, 10% glycerol and 50 mM tris[hydroxymethyl]aminomethane (Tris), pH 6.8), and the lysates were heated to 100° C. for 5 minutes. Proteins in the lysate were separated by polyacrylamide gel electrophoresis and electrophoretically transferred to nitrocellulose. The membrane was washed once in 10 mM Tris, pH 7.2, 150 mM NaCl, 0.01% Azide (TNA), and blocked overnight in TNA containing 5% bovine serum albumin and 1% ovalbumin. The membrane was blotted for 2 hours with antiphosphotyrosine antibody (UBI, 1 μg/mL in blocking buffer) and then washed twice in TNA, once in TNA containing 0.05% Tween-20 detergent and 0.05% nonidet P-40 detergent and twice in TNA. […] Band intensities were determined with a Molecular Dynamics laser densitometer.

The target in series [3] is T1, EGFR. The conditions noted are these: read-out: EGFR (autophosphorlyation) IC50; A431 cells, 15 minutes compound, stimulated with 100 ng/mL EGF. The protocol: as §1
Duplicate sets of cells were treated with a range of concentrations of the designated compound to be tested as an inhibitor for 15 minutes. The cells were then stimulated with 100 ng/mL of EGF for 5 minutes and extracts made as described under the Western Blotting Procedure.

A further series addresses ErbB-2 (Homo sapiens, UniProt P04626). Description: ErbB-2 autophosphorylation assay. The series is classed as cell-based. The note with it: read-out: ErbB-2 (autophosphorlyation) IC50.

pIC50: −log10 of the molar value. Where a name gives a salt, the structure may show the parent alone.

T1 sequence (P00533 25-1210 limits assumed): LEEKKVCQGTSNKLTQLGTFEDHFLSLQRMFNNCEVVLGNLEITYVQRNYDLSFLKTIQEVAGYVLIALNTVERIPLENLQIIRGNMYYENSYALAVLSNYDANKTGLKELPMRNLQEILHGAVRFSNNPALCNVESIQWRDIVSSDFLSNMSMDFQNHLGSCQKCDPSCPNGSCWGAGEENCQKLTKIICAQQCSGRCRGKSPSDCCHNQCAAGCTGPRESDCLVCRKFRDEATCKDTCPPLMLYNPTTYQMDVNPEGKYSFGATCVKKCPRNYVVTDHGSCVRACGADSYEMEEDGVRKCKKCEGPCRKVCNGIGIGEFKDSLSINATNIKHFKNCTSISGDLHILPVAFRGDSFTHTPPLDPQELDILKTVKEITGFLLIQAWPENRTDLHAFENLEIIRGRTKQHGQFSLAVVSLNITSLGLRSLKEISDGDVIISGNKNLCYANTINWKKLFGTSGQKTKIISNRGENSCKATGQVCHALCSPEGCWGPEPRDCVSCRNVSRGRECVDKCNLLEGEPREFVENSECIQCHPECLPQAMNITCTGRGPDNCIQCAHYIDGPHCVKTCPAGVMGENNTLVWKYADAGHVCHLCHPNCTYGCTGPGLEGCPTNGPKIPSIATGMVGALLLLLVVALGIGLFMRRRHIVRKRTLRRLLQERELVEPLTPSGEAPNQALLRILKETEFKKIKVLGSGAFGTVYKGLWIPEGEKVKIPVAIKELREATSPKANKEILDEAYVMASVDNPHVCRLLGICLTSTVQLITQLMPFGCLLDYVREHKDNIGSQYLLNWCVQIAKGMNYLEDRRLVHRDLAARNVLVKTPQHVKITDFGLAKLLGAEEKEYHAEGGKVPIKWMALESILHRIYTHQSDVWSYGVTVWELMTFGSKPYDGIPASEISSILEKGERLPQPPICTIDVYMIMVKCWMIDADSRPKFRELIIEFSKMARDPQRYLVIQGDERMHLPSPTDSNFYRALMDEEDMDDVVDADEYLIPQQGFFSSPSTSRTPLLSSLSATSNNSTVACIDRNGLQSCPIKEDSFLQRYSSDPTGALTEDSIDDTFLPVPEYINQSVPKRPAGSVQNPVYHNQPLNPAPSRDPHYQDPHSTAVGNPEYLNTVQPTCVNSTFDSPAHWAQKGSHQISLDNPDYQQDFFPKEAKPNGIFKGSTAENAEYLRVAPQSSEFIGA
Human EGF receptor tyrosine kinase, sequence (P00533 25-1210 limits assumed): as above
ErbB-2, sequence (P04626 23-1255, species assumed): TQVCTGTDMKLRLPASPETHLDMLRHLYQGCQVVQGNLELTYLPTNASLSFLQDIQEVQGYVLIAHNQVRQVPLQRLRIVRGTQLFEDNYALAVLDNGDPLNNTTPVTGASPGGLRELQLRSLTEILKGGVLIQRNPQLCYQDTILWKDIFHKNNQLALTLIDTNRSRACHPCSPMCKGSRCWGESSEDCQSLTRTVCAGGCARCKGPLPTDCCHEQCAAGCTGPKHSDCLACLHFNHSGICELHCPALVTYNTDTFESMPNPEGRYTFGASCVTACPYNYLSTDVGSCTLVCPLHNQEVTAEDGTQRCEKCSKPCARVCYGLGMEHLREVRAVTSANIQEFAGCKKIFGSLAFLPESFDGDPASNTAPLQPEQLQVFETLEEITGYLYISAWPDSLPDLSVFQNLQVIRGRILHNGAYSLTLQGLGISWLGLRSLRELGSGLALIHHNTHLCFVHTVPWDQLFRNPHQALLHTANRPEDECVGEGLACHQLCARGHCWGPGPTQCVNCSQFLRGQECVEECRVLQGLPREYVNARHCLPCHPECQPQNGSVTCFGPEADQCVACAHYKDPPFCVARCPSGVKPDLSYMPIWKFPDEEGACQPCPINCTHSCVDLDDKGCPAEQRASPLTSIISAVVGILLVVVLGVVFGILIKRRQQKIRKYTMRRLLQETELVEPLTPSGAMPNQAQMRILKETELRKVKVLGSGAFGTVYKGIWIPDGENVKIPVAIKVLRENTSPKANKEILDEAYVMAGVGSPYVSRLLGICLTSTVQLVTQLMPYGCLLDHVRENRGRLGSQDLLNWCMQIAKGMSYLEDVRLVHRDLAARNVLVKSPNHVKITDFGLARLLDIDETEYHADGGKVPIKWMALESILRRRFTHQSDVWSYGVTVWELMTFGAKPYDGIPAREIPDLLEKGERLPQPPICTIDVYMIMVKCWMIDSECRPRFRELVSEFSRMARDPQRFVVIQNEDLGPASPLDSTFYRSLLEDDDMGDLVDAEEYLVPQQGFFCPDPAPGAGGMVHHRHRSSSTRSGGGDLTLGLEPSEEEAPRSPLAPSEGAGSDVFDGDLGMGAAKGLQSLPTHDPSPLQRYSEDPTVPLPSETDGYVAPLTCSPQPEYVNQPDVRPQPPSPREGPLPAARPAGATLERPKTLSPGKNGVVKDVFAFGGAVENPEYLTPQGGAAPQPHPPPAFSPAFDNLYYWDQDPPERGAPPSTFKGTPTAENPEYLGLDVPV

For `C=CC(=O)Nc1ccc2ncnc(Nc3ccc(Oc4ccccc4)cc3)c2c1` (as salt: salt) [Example 1, N-(4-[4-Phenoxyanilino]quinazolin-6-yl)acrylamide], the melting point fell in the range of 185 to 191 °C.
The same measure, in the same setting: to `C=CC(=O)Nc1ccc2ncnc(Nc3ccc(OCc4ccccc4)cc3)c2c1` (as salt: salt) [Example 2, N-(4-[4-Benzyloxyanilino]quinazolin-6-yl)acrylamide] belongs 227 to 229 °C.
As to `C=CC(=O)Nc1ccc2ncnc(Nc3ccc(Oc4ccccc4)cc3)c2c1` [Example 1, N-(4-[4-Phenoxyanilino]quinazolin-6-yl)acrylamide], the pIC50 in series [1] is 8.24; at EGFR [3] it was 8.32. For the same molecule, the “% EGFR enzyme activity after 8 hours washoff” value at EGFR [2] worked out at 0%.
Consider `C=CC(=O)Nc1ccc2ncnc(Nc3ccc(OCc4ccccc4)cc3)c2c1` [Example 2, N-(4-[4-Benzyloxyanilino]quinazolin-6-yl)acrylamide], for which the negative logarithm of the IC50 (pIC50) in series [1] is 8.44; at ErbB-2, 8.12; on EGFR [3] it was 8.38. Besides, the “% EGFR enzyme activity after 8 hours washoff” value at EGFR [2] came out at 0%.

A word on the melting point: it is the temperature of the solid-liquid transition. Broadly, the pIC50 is −log10 of the IC50, conventionally taken in molar units.
